Values joined by “and” are separate entries in the source; they are usually repeats but may differ in a detail not shown here. Equal values may be shown once. “Also recorded” adds a separate entry of the source. Where a name gives a salt, the structure may show the parent alone. Read-outs that look alike come from different tables or passages of the source. Marks after values point to notes of the source that are not given here.

For orientation: Solubility means the concentration that dissolves in the medium under given conditions.

Series [1] concerns bleomycin-induced pulmonary fibrosis in rats. The experiment in a line: Mortality during experiment days 7-28, bleomycin-induced pulmonary fibrosis in rats. The class given is in vivo, SD rats. The procedure:
(§1) Male SD rats, body weight 250-300 g. The animals were anesthetized with 3% seconal, laid flat and fixed onto the operating table. The necks of the animals were disinfected with alcohol and cut to expose tracheae. A needle was inserted via the space between tracheal rings centripetally, and 5 mg/kg of bleomycin was injected. The rats were kept upright and rotated, in order to keep the solution uniformly distributed in the lungs. Then the incisions were sutured.
(§2) After the rats regained consciousness, they were randomly grouped. The animals were divided into (i) a group receiving administration on the next day after establishing the model and (ii) a group receiving administration at 7 days after the model was established. Included were 27, 9, and 3 mg/kg p.o.×28 d asiatic acid groups, 0.6 mg/kg p.o.×28 d dexamethasone group, 36 mg/kg p.o.×28 d asiaticoside group, model group, and blank group. Normal saline was administered for the model and blank groups. On the 28th day after asiatic acid and asiaticoside administration, survival and weight ratio of lungs were measured; pathological examination and serological examination were performed.

The test system is the same in series [2]. The series can be described thus: Lung weight index of bleomycin-induced pulmonary fibrosis in rats. The series is classed as in vivo, SD rats. Conditions: for lung weight ratio (%): (lung weight/body weight)x100%. The procedure: as §1, §2
Effect of on lung weight index of bleomycin-induced pulmonary fibrosis in rats treated with asiatic acid Body weight and lung weight were measured after the rats were sacrificed. Lung weight ratio=(lung weight/body weight)×100%.

A further series has as its system TFG-β. The series can be described thus: Serological test (ELISA kit) of TFG-β in rats of bleomycin-induced pulmonary fibrosis. The class given is in vivo, SD rats. The settings on record: serum; for TFG-β (2nd day) X ± SD: dosing from 2nd day; for TFG-β (7th day) X ± SD: dosing from 7th day. As to the method: TFG-β Kit, Human 96T ELISA kit imported by Shanghai Jingmei
as §1, §2
(§3) Serum samples were prepared according to a standard protocol (centrifuged 3000 rpm, 10 minutes after collection) and were stored at −20° C. Testing was conducted in accordance with kit instructions.
(In general: ELISA stands for enzyme-linked immunosorbent assay.)

In another series the test system is TNF-α. The experiment in a line: Serological test (ELISA kit) of TNF-α in rats of bleomycin-induced pulmonary fibrosis. The class given is in vivo, SD rats. Conditions: serum; for TNF-α (2nd day) X ± SD: dosing from 2nd day; for TNF-α (7th day) X ± SD: dosing from 7th day. The procedure:
TNF-α Kit, Human 96T ELISA kit imported by Shanghai Jingmei
as §1, §2, §3

Another series relates to Hydroxyproline. The series can be described thus: Measured value of hydroxyproline in experiment of asiatic acid antagonizing fibrosis. The series is classed as in vivo, SD rats. On the set-up: Measured Value of Hydroxyproline (on 2nd day), single animals / Measured Value of Hydroxyproline (on 2nd day), X / Measured Value of Hydroxyproline (on 7th day), single animals / Measured Value of Hydroxyproline (on 7th day), X: unit not given here. Conditions: for Measured Value of Hydroxyproline (on 2nd day), X / Measured Value of Hydroxyproline (on 7th day), X: group mean. As to the method: as §1, §2

Another series deals with Type III collagen. The series can be described thus: Type III collagen content, bleomycin rat model. The class given is in vivo, SD rats. The procedure:
as §1, §2

Series [3] deals with pulmonary fibrosis induced by bleomycin in rats. The experiment in a line: Pathological analysis of lung (HE staining; collagen fiber and elastic fiber dual staining). The class given is in vivo, SD rats. The settings on record: asiaticoside 36 mg/kg; administration on the next day after establishing model. As to the method: as §1, §2
The lung tissues were fixed in 10% formalin for 1 week. […] The thickness of sections was […]. Routine hematoxylin-eosin (HE) staining was performed. Dual special staining of collagen fibers and elastic fibers were conducted in order to detect the degree of fibrosis. The staining of the two groups of sections was observed and the results were as follows.

Series [4] can be described thus: Solubility in water and methanol (saturated solutions, HPLC). The series is classed as physicochemical. Conditions: for Solubility: single preparations (inj 1A-1C). As to the method: Approximately 5 mg of asiatic acid were transferred into a 25 mL volumetric flask, and 1 mL, of methanol was added and mixed well, until the acid had dissolved in the methanol. The volumetric flask then was brought to volume with mobile phase and mixed well. [table] Saturated solutions obtained from starting material and salt in methanol and water were filtered and diluted accordingly with mobile phase. No dilution was performed for asiatic acid in water. Samples were prepared in triplicate except for the sodium salt prepared in methanol, for which two preparations were done.

The mark [5] stands for this setting: asiaticoside 36 mg/kg, individual rats 1-10.
Setting [6] is: dexamethasone (0.6 mg/kg), individual rats 1-6.

As to `C[C@H]1[C@H](C)CC[C@]2(C(=O)O[C@@H]3O[C@H](CO[C@@H]4O[C@H](CO)[C@@H](O[C@@H]5O[C@H](C)[C@H](O)[C@@H](O)[C@H]5O)[C@H](O)[C@H]4O)[C@@H](O)[C@H](O)[C@H]3O)CC[C@]3(C)C(=CC[C@@H]4[C@@]5(C)C[C@@H](O)[C@H](O)[C@@](C)(CO)[C@@H]5CC[C@]43C)[C@H]12` [Asiaticoside, asiaticoside], the “remaining samples at the end of study” value in series [1] (asiaticoside 36 mg/kg p.o. x 28 d, dosing started on 2nd day, 14 on day 7) is 12; in series [1] (asiaticoside 36 mg/kg p.o. x 28 d, dosing started on 7th day, 13 in the group) it was 11. Further, the number of deaths is 2 in series [1] (asiaticoside 36 mg/kg p.o. x 28 d, dosing started on 2nd day, days 7-28) and 2 in series [1] (asiaticoside 36 mg/kg p.o. x 28 d, dosing started on 7th day). The “survival / bleomycin-induced death” value in series [1] (rats treated with bleomycin, treatment initiated one day or seven days after bleomycin) is given as “largely prevented bleomycin-induced death; also recorded: significantly enhance survival”. In addition, the “lung weight ratio (%)” value in series [2] (asiaticoside 36 mg/kg, started 7 day after model established) is reported as 0.80** %; in series [2] (asiaticoside 36 mg/kg, started from the second day) it was 0.84** %. Further, the “lung weight (g) X ± SD” value is 2.59 ± 0.33 g in series [2] (asiaticoside 36 mg/kg, 28-day administration started 7 day after model established) and 2.62 ± 0.38 g in series [2] (asiaticoside 36 mg/kg, 28-day administration started from the second day). Also, the “lung weight to body weight ratio” value in series [2] (starting on 2nd or 7th day, compared with the model group) is “significantly decrease bleomycin-induced lung fibrosis”. In addition, in the series with TFG-β (asiaticoside 36 mg/kg), the “TFG-β (2nd day) X ± SD” value is listed as 0.670 ± 0.155 OD value. Besides, the “TFG-β (7th day) X ± SD” value with TFG-β (asiaticoside 36 mg/kg) is 1.181 ± 0.364 OD value. Further, the “TNF-α (2nd day) X ± SD” value in the series with TNF-α (asiaticoside 36 mg/kg) came to 0.064 ± 0.013 OD value. For the same compound, the “TNF-α (7th day) X ± SD” value in the series with TNF-α (asiaticoside 36 mg/kg) was determined as 0.091 ± 0.027 OD value. For the same compound, in the series on Hydroxyproline (asiaticoside 36 mg/kg), the “Measured Value of Hydroxyproline (on 2nd day), X” value was found to be 24.11. Further, the “Measured Value of Hydroxyproline (on 7th day), X” value in the series with Hydroxyproline (asiaticoside 36 mg/kg) is on record as 26.57. Also, the “Measured Value of Hydroxyproline (on 2nd day), single animals” value in the series on Hydroxyproline (setting [5]) is 28.56 and 28.69 and 19.63 and 25.34 and 28.11 and 20.54 and 25.36 and 19.47 and 25.25 and 20.11. Further, the “Measured Value of Hydroxyproline (on 7th day), single animals” value in the series on Hydroxyproline (setting [5]) was 28.19 and 24.36 and 28.17 and 24.69 and 29.1 and 25.11 and 25.91 and 24.97 and 29.69 and 25.55. In the series on Hydroxyproline (overall statement), the “serum levels of hydroxyproline” value is “significantly decrease bleomycin-induced fibrosis”. In the series on Type III collagen (overall statement), the “serum levels of type III collagen” value is on record as “significantly decrease bleomycin-induced fibrosis”. The “lung pathology, HE staining” value in series [3] was “less serious than those of the model group”.

For the compound `C[C@@H]1C[C@H]2[C@@H]3CCC4=CC(=O)C=C[C@]4(C)[C@@]3(F)[C@@H](O)C[C@]2(C)[C@@]1(O)C(=O)CO` [Dexamethasone, reference compound], the “remaining samples at the end of study” value in series [1] (dexamethasone 0.6 mg/kg p.o. x 28 d, dosing started on 2nd day, 14 on day 7) was 6; in series [1] (dexamethasone 0.6 mg/kg p.o. x 28 d, dosing started on 7th day, 13 in the group) it was 6. Also, the number of deaths in series [1] (dexamethasone 0.6 mg/kg p.o. x 28 d, dosing started on 2nd day, days 7-28) worked out at 8; in series [1] (dexamethasone 0.6 mg/kg p.o. x 28 d, dosing started on 7th day), 7. The “lung weight ratio (%)” value in series [2] (dexamethasone 0.6 mg/kg, started 7 day after model established) stood at 1.14%; in series [2] (dexamethasone 0.6 mg/kg, started from the second day), 1.31%. Besides, the “lung weight (g) X ± SD” value in series [2] (dexamethasone 0.6 mg/kg, 28-day administration started 7 day after model established) came out at 2.05 ± 0.40 g; in series [2] (dexamethasone 0.6 mg/kg, 28-day administration started from the second day), 2.06 ± 0.52 g. The “TFG-β (2nd day) X ± SD” value in the series on TFG-β (dexamethasone 0.6 mg/kg) was 0.751 ± 0.214 OD value. In addition, the “TFG-β (7th day) X ± SD” value with TFG-β (dexamethasone 0.6 mg/kg) was determined as 0.717 ± 0.197 OD value. The “TNF-α (2nd day) X ± SD” value with TNF-α (dexamethasone 0.6 mg/kg) is 0.073 ± 0.006 OD value. In addition, in the series on TNF-α (dexamethasone 0.6 mg/kg), the “TNF-α (7th day) X ± SD” value was 0.060 ± 0.006 OD value. The “Measured Value of Hydroxyproline (on 2nd day), X” value in the series on Hydroxyproline (dexamethasone (0.6 mg/kg)) was 23.45. Moreover, in the series with Hydroxyproline (dexamethasone (0.6 mg/kg)), the “Measured Value of Hydroxyproline (on 7th day), X” value was found to be 27.35. Moreover, the “Measured Value of Hydroxyproline (on 2nd day), single animals” value in the series with Hydroxyproline (setting [6]) is 19.86 and 23.31 and 21.69 and 24.63 and 25.36 and 25.87. Moreover, in the series with Hydroxyproline (setting [6]), the “Measured Value of Hydroxyproline (on 7th day), single animals” value is 25.17 and 27.44 and 25.99 and 29.66 and 28.07 and 27.75. Besides, the “Type III collagen content X ± SD” value in the series on Type III collagen (Dex (0.6 mg/kg), treatment starting on Day 7) turned out to be 0.518 ± 0.527.

On to `C[C@H]1[C@H](C)CC[C@]2(C(=O)O)CC[C@]3(C)C(=CC[C@@H]4[C@@]5(C)C[C@@H](O)[C@H](O)[C@@](C)(CO)[C@@H]5CC[C@]43C)[C@H]12` [Asiatic acid-Na salt NaOH, asiatic acid sodium salt], for which the Solubility in series [4] (MeOH, sodium salt) was 24080 µg/mL; in series [4] (methanol, organic solvent or mixture, thermodynamic from solid, MeOH, read-out: Solubility), 25400 µg/mL; in series [4] (water, thermodynamic from solid, water, read-out: Solubility), 6860 µg/mL; in series [4] (water, sodium salt), 6360 µg/mL and 7320 µg/mL. Further, the “times more soluble than asiatic acid” value in series [4] (water) is given as about 228 times.

The record behind these values is patent publication US8742167B2, “Therapeutic formulations based on asiatic acid and selected salts thereof” (Shanghai Institute of Pharmaceutical Industry, priority 2008, dated 2014).
